Data from US10710978B2, “STK4 inhibitors for treatment of hematologic malignancies” (Dana-Farber Cancer Institute, Inc., priority 2015, dated 2020).
Where two headings read alike, the source gives them in different places.

Legend:
Experiment in all cases: KiNativ assay
Type in all cases: binding
CDK7 = CDK7 (Homo sapiens (Human), UniProt P50613); conditions: H929 live cell
Method: (§1) Biochemical IC50s of the compounds of the present disclosure against various kinases were measured in a KiNativ assay. Compounds were screened in duplicate at 10 μM in H929 live cell. IC50 was measured via Mass spectroscopy (MS).

IKKa = IKKa (Homo sapiens (Human), UniProt O15111); conditions: H929 live cell
Method: as §1

LYN = LYN (Homo sapiens (Human), UniProt P07948); conditions: H929 live cell
Method: as §1

MLK3 = MLK3 (Homo sapiens (Human), UniProt Q16584); conditions: H929 live cell
Method: as §1

KSR1, KSR2 = conditions: H929 live cell
Method: as §1

PKR = PKR (Homo sapiens (Human), UniProt P19525); conditions: H929 live cell
Method: as §1

MLKL = MLKL (Homo sapiens (Human), UniProt Q8NB16); conditions: H929 live cell
Method: as §1

PKD2 = PKD2 (Homo sapiens (Human), UniProt Q9BZL6); conditions: H929 live cell
Method: as §1

NEK7 = NEK7 (Homo sapiens (Human), UniProt Q8TDX7); conditions: H929 live cell
Method: as §1

ABL, ARG = conditions: H929 live cell
Method: as §1

MAP2K1, MAP2K2 = conditions: 10 μM, H929 live cell; range class
Method: as §1

SLK = SLK (Homo sapiens (Human), UniProt Q9H2G2); conditions: H929 live cell
Method: as §1

MAP3K2 = MAP3K2 (Homo sapiens (Human), UniProt Q9Y2U5); conditions: H929 live cell
Method: as §1

PI4KA, PI4KAP2 = conditions: H929 live cell
Method: as §1

RSK1 domain2 = RSK1 domain2 (Homo sapiens (Human), UniProt Q15418); conditions: H929 live cell
Method: as §1

AurB = AurB (Homo sapiens (Human), UniProt Q96GD4); conditions: H929 live cell
Method: as §1

p70S6Kb = p70S6Kb (Homo sapiens (Human), UniProt Q9UBS0); conditions: H929 live cell
Method: as §1

CDK11, CDK8 = conditions: H929 live cell
Method: as §1

MAP2K1 = MAP2K1 (Homo sapiens (Human), UniProt Q02750); conditions: H929 live cell
Method: as §1

AKT1 = AKT1 (Homo sapiens (Human), UniProt P31749); conditions: H929 live cell
Method: as §1

PKCi = PKCi (Homo sapiens (Human), UniProt P41743); conditions: H929 live cell
Method: as §1

MAST3 = MAST3 (Homo sapiens (Human), UniProt O60307); conditions: H929 live cell
Method: as §1

NuaK2 = NuaK2 (Homo sapiens (Human), UniProt Q9H093); conditions: H929 live cell
Method: as §1

p38a = p38a (Homo sapiens (Human), UniProt Q16539); conditions: H929 live cell, range class, read-out: % inhibition
Method: as §1

BRAF = BRAF (Homo sapiens (Human), UniProt P15056); conditions: H929 live cell
Method: as §1

IRAK4 = IRAK4 (Homo sapiens (Human), UniProt Q9NWZ3); conditions: H929 live cell
Method: as §1

MSK2 domain1 = MSK2 domain1 (Homo sapiens (Human), UniProt O75676); conditions: H929 live cell
Method: as §1

CK1g3 = CK1g3 (Homo sapiens (Human), UniProt Q9Y6M4); conditions: H929 live cell
Method: as §1

MAP3K1 = MAP3K1 (Homo sapiens (Human), UniProt Q13233); conditions: H929 live cell
Method: as §1

STLK6 = STLK6 (Homo sapiens (Human), UniProt Q9C0K7); conditions: H929 live cell
Method: as §1

AMPKa1, AMPKa2 = conditions: H929 live cell
Method: as §1

MST2 = MST2 (Homo sapiens (Human), UniProt Q13188); conditions: H929 live cell
Method: as §1

PAN3 = PAN3 (Homo sapiens (Human), UniProt Q58A45); conditions: H929 live cell
Method: as §1

GCN2 domain2 = GCN2 domain2 (Homo sapiens (Human), UniProt Q9P2K8); conditions: H929 live cell
Method: as §1

[1] = range class, read-out: % inhibition

Sequence of CDK7 (P50613 whole entry): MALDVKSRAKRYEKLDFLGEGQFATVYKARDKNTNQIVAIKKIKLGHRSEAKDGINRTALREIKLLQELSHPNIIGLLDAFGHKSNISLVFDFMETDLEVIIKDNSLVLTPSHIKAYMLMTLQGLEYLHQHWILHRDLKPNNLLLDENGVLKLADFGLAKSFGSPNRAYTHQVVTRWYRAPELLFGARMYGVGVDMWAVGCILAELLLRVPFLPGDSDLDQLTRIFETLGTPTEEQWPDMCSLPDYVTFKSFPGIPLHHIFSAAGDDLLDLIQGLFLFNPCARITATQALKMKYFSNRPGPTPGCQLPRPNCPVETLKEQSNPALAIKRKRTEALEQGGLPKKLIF
Sequence of CDK7 (P51946 whole entry partner): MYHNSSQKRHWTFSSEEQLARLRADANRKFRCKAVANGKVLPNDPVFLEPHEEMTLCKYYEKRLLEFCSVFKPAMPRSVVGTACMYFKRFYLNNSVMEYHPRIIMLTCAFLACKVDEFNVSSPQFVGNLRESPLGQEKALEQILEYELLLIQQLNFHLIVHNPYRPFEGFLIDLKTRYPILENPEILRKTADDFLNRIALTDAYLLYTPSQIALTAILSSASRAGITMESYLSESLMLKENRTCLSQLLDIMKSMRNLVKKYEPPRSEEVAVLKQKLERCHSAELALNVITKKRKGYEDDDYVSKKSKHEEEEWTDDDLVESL
Sequence of CDK7 (P51948 whole entry partner): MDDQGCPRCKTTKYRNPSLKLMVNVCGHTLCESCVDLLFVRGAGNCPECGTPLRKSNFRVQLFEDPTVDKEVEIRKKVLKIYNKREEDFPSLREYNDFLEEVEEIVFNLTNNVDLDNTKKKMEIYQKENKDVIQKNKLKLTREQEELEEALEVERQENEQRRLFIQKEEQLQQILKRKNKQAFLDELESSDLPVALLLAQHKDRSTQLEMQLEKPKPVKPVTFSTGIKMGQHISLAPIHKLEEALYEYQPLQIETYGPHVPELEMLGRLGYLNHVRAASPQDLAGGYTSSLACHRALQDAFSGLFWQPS
Sequence of IKKa (O15111 whole entry): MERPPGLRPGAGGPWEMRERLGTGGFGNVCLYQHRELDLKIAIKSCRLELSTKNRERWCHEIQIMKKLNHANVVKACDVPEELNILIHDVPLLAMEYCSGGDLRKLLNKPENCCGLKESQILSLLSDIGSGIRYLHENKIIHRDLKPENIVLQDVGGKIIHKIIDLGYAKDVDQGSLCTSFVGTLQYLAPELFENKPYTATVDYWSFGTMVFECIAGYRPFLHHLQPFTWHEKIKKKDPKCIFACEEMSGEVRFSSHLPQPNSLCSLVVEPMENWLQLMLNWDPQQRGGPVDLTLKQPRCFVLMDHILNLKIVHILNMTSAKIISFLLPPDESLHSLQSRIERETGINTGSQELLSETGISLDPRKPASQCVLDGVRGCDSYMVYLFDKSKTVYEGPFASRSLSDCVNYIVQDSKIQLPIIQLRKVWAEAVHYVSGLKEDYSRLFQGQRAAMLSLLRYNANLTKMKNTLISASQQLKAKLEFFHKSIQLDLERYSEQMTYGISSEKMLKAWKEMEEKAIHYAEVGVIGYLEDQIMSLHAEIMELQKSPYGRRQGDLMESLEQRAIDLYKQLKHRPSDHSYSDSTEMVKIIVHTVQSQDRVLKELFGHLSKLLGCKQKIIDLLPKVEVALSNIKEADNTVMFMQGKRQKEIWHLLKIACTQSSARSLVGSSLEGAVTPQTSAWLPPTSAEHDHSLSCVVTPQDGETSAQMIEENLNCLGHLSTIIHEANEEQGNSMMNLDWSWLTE
Sequence of PAN3 (Q58A45 whole entry): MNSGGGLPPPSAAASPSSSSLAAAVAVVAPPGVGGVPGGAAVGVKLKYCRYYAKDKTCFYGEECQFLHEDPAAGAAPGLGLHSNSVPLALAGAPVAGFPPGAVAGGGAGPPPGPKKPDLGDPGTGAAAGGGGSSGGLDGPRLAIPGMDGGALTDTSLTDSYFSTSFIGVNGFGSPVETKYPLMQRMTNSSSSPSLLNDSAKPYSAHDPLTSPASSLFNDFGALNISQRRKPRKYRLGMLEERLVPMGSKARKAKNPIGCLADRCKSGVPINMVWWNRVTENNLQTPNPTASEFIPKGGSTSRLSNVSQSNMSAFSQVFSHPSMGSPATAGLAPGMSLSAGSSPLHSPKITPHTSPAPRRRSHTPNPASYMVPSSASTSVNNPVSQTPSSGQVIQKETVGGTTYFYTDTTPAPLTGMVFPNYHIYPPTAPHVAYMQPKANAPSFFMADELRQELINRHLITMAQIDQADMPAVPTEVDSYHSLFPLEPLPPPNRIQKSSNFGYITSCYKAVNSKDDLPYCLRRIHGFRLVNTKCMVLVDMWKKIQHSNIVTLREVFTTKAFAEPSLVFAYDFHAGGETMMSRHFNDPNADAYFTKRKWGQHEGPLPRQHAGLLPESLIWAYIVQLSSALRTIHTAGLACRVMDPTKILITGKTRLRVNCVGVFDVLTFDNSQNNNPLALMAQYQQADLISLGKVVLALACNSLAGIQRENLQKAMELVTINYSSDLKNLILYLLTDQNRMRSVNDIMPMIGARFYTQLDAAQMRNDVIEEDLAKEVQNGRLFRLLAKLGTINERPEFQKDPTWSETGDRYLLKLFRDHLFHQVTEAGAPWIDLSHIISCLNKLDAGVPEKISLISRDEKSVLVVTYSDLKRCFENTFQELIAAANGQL
Sequence of MST2 (Q13188 whole entry): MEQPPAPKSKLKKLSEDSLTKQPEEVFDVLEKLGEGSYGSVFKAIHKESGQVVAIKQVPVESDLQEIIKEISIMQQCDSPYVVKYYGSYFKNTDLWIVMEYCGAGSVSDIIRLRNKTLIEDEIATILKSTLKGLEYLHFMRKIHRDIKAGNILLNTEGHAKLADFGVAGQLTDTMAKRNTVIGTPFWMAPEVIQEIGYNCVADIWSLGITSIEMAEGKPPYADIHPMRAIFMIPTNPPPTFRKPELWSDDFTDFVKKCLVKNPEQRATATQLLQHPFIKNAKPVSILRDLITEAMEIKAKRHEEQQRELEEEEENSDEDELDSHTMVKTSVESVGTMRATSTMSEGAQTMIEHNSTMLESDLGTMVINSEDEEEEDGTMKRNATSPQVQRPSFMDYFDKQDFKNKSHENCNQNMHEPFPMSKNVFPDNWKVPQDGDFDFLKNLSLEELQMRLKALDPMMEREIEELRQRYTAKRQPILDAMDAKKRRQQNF
Sequence of MAP3K1 (Q13233 whole entry): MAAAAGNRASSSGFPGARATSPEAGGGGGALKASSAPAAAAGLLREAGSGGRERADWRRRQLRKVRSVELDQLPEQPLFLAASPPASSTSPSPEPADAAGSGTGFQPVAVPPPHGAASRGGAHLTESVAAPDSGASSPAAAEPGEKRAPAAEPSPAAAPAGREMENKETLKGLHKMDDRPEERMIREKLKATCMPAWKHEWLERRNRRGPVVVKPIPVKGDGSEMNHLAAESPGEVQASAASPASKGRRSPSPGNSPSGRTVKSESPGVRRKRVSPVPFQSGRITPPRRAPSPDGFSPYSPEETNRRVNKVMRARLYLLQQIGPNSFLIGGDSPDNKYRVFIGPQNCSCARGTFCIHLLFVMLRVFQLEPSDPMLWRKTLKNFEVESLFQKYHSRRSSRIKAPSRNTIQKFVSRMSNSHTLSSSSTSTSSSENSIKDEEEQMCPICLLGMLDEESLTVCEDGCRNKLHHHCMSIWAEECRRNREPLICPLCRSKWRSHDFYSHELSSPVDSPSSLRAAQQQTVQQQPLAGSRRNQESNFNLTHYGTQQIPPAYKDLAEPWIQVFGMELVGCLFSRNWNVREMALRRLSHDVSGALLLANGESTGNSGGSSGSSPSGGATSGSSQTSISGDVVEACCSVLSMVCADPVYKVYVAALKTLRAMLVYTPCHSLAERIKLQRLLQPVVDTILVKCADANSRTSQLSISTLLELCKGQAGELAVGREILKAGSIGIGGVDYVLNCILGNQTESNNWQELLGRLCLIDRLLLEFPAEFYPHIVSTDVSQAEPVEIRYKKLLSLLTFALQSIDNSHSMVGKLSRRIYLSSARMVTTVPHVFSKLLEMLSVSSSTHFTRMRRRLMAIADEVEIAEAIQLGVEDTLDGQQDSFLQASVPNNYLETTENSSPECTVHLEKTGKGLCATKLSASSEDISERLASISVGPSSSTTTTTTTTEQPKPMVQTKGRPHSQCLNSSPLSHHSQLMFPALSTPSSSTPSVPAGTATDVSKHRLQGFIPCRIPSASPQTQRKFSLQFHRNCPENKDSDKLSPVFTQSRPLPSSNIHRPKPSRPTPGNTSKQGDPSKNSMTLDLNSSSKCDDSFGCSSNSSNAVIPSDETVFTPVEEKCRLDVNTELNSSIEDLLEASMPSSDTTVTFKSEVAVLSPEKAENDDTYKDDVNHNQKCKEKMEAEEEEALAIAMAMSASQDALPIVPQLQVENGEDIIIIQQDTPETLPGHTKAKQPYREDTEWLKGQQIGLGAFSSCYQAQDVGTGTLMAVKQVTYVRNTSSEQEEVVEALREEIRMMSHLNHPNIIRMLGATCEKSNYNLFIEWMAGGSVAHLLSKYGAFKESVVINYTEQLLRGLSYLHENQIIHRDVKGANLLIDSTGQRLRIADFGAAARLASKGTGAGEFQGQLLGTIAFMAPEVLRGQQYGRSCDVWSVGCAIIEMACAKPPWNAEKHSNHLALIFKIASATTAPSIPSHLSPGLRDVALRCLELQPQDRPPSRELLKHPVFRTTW
Sequence of NEK7 (Q8TDX7 whole entry): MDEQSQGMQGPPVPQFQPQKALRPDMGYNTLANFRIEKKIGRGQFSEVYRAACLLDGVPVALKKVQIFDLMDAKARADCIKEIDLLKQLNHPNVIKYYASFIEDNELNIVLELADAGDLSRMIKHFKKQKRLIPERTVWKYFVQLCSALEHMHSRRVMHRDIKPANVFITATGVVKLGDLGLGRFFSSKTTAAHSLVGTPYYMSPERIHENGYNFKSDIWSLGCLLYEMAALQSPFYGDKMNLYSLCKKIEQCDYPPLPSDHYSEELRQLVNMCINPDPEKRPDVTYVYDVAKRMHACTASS

SMILES: Nc1ncc(-c2ccc(NS(=O)(=O)C3CC3)cc2OC2CCCCC2)cc1-c1ccc2c(c1)CCNC2=O [Compound I-65, N-(4-(6-amino-5-(1-oxo-1,2,3,4-tetrahydroisoquinolin-6-yl)pyridin-3-yl)-3-(cyclohexyloxy)phenyl) cyclopropanesulfonamide]
- inhibition at 10 µM (CDK7; [1]): 0%
- inhibition at 10 µM (CDK7; read-out: inhibition (10 μM)): 29.9%
- inhibition at 10 µM (IKKa; [1]): 0%
- inhibition at 10 µM (IKKa; read-out: inhibition (10 μM)): -34.3%
- inhibition at 10 µM (LYN; [1]): 0%
- inhibition at 10 µM (LYN; read-out: inhibition (10 μM)): -1.3%
- inhibition at 10 µM (MLK3; [1]): 75 to 90%
- inhibition at 10 µM (MLK3; read-out: inhibition (10 μM)): 82.7%
- % inhibition (KSR1, KSR2; 10 μM, range class): 0.0%
- inhibition (10 μM) (KSR1, KSR2): −5.7%
- inhibition at 10 µM (PKR; [1]): 0%
- inhibition at 10 µM (PKR; read-out: inhibition (10 μM)): -7.6%
- inhibition at 10 µM (MLKL; [1]): 0%
- inhibition at 10 µM (MLKL; read-out: inhibition (10 μM)): 0.2%
- inhibition at 10 µM (PKD2; [1]): 0%
- inhibition at 10 µM (PKD2; read-out: inhibition (10 μM)): -33.4%
- inhibition at 10 µM (NEK7; [1]): 0%
- inhibition at 10 µM (NEK7; read-out: inhibition (10 μM)): -80%
- % inhibition (ABL, ARG; 10 μM, range class): 0.0%
- inhibition (10 μM) (ABL, ARG): −2.8%
- % inhibition (MAP2K1, MAP2K2): 0.0%
- inhibition at 10 µM (SLK; [1]): > 90%
- inhibition at 10 µM (SLK; read-out: inhibition (10 μM)): 97.8%
- inhibition at 10 µM (MAP3K2; [1]): 0%
- inhibition at 10 µM (MAP3K2; read-out: inhibition (10 μM)): -3.9%
- % inhibition (PI4KA, PI4KAP2; 10 μM, range class): 0.0%
- inhibition (10 μM) (PI4KA, PI4KAP2): −2.9%
- inhibition at 10 µM (RSK1 domain2; [1]): 0%
- inhibition at 10 µM (RSK1 domain2; read-out: inhibition (10 μM)): -0.7%
- inhibition at 10 µM (AurB; [1]): 0%
- inhibition at 10 µM (AurB; read-out: inhibition (10 μM)): 21%
- inhibition at 10 µM (p70S6Kb; [1]): 0%
- inhibition at 10 µM (p70S6Kb; read-out: inhibition (10 μM)): 32%
- % inhibition (CDK11, CDK8; 10 μM, range class): 0.0%
- inhibition (10 μM) (CDK11, CDK8): 31.3%
- inhibition at 10 µM (MAP2K1; [1]): 0%
- inhibition at 10 µM (MAP2K1; read-out: inhibition (10 μM)): 21.2%
- inhibition at 10 µM (AKT1; [1]): 0%
- inhibition at 10 µM (AKT1; read-out: inhibition (10 μM)): 1.6%
- inhibition at 10 µM (PKCi; [1]): 0%
- inhibition at 10 µM (PKCi; read-out: inhibition (10 μM)): -41.2%
- inhibition at 10 µM (MAST3; [1]): 0%
- inhibition at 10 µM (MAST3; read-out: inhibition (10 μM)): -7.5%
- inhibition at 10 µM (NuaK2; [1]): 35 to 40%
- inhibition at 10 µM (NuaK2; read-out: inhibition (10 μM)): 48.7%
- inhibition at 10 µM (p38a): 0%
- inhibition at 10 µM (BRAF; [1]): 0%
- inhibition at 10 µM (BRAF; read-out: inhibition (10 μM)): -41.5%
- inhibition at 10 µM (IRAK4; [1]): 0%
- inhibition at 10 µM (IRAK4; read-out: inhibition (10 μM)): 32.9%
- inhibition at 10 µM (MSK2 domain1; [1]): 0%
- inhibition at 10 µM (MSK2 domain1; read-out: inhibition (10 μM)): -83.6%
- inhibition at 10 µM (CK1g3; [1]): 75 to 90%
- inhibition at 10 µM (CK1g3; read-out: inhibition (10 μM)): 87.2%
- inhibition at 10 µM (MAP3K1; [1]): 35 to 40%
- inhibition at 10 µM (MAP3K1; read-out: inhibition (10 μM)): 48.5%
- inhibition at 10 µM (STLK6; [1]): 0%
- inhibition at 10 µM (STLK6; read-out: inhibition (10 μM)): -15.9%
- % inhibition (AMPKa1, AMPKa2; 10 μM, range class): 35-40%
- inhibition (10 μM) (AMPKa1, AMPKa2): 39.0%
- inhibition at 10 µM (MST2; [1]): > 90%
- inhibition at 10 µM (MST2; read-out: inhibition (10 μM)): 97.3%
- inhibition at 10 µM (PAN3; [1]): 0%
- inhibition at 10 µM (PAN3; read-out: inhibition (10 μM)): 5.8%
- inhibition at 10 µM (GCN2 domain2; [1]): 35 to 40%
- inhibition at 10 µM (GCN2 domain2; read-out: inhibition (10 μM)): 43.5%
